# Experiments:
# [1] = test system: Flk1+ MPCs; test: Differentiation of MCs from Flk1+ MPCs, FACS of αSMA+ MCs; type: cell-based, mouse; conditions: Y27632 10 μM; ML7 5 μM
# Procedure: FIGS. 11A-11D. ROCK suppression promotes the differentiation of ECs through PTEN-Akt signaling and inhibits the differentiation of MCs through MyPT-MLC signaling. (FIG. 11A) Representative FACS analysis of CD31+/CD144+ ECs incubated with 0.1% DMSO or LY294002 (20┌ M; LY) in the presence of PBS (Control) or Y27632 (10┌ M; Y). (FIG. 11B) % of CD31+/CD144+ EC population. Each group, n=3. *p<0.01 versus 0. Each group, n=3. *p<0.01 versus DMSO; ^#p<0.01 versus Y27632. (FIG. 11C) Representative FACS analysis of ┌ SMA+MCs or CD144+ ECs incubated with 0.1% DMSO or ML7 (5 ┌ M) in the presence of PBS (Control) or Y27632 (10┌ M). (FIG. 11D) % of ┌ SMA+MC population. Each group, n=3. *p<0.01 versus 0. Each group, n=3. *p<0.01 versus DMSO. n.s. represents statistically non-significant.
# Analysis and sorting for CMs were performed at day 10.5. We harvested differentiated Flk1+ MPCs on OP9 cells with 0.25% trypsin-EDTA or dissociation buffer (Invitrogen). Cardiac troponin-T (cTnT)+ and ┌ smooth muscle actin (SMA)+ cells were analyzed after permeabilization using Cytofix/Cytoperm solution (BD Biosciences) for 15 min. After permeabilization, the cells were incubated for 30 min with anti-mouse cTnT (NeoMarkers) monoclonal antibody. […] Data were analyzed using FlowJo Version 7.5.4 software (TreeStar).
# [2] = test system: Flk1+ MPCs; test: Differentiation and expansion of ECs from Flk1+ MPCs in feeder cell-free 2D Matrigel system, FACS of CD31+/CD144+ ECs; type: cell-based, mouse; conditions: for differentiation and expansion of ECs compared to control: Y27632 10 μM; for increase of CD31+/CD144+ EC population compared to Control: day 6.5, E14tg2a
# Procedure: E14tg2a ESC cell line was a generous gift from Dr. Jun K. Yamashita (Kyoto University), and R1 ESC cell line was purchased from American Type Cell Culture. Mouse iPSC derived from FVB strain was a generous gift from Drs. Hyun-Jai Cho and Hyo-Soo Kim (Seoul National University Hospital). To obtain Flk1+ MPCs, ESCs and iPSCs were cultured on 0.1% gelatin-coated plates at a density of 1-2×10^3 cells/cm^2 in differentiation medium [┌−minimal essential medium (Invitrogen) supplemented with 10% fetal bovine serum (FBS)] without leukemia inhibitory factor (LIF). At day 4.5, the Flk1+ MPCs were purified by AutoMACS™Pro Separator (Miltenyi Biotec) with biotin-conjugated anti-mouse Flk1 antibody (clone AVAS12a1, eBioscience) and streptavidin MicroBeads (Miltenyi Biotec). The Flk1+MPCs were then subsequently plated onto Matrigel (BD Biosciences)-coated plates at a density of 1˜2×10^4 cells/cm^2, and were cultured in differentiation medium supplemented with VEGF-A165 (50 ng/ml, Peprotech). To purify the ECs from the differentiating Flk1+ cells, the cells were first dissociated and resuspended in HBSS/2% FBS, and were serially incubated with anti-mouse ICAM2 antibody (rat monoclonal, clone 3C4, Biolegend) for 10 min and with anti-rat IgG Microbead (Miltenyi Biotec) for 15 min. […] VEGF-Trap was prepared as previously described. Various signaling inhibitors and activators including SB203580, PD98059, KT5720, Go6976, KT5823, LY294002, rapamycin, Y27632, SB431542, Rho-kinase inhibitor (RKI; H-1152, isoquinolinesulfonamide), and Rho-kinase inhibitor II (RKI-II; pyridyl urea) were purchased from Calbiochem and Sigma-Aldrich.
# Cells were harvested with 0.25% trypsin-EDTA (Invitrogen) or dissociation buffer (Invitrogen) and resuspended in HBSS/2% FBS at 1×10^6 cells per 100┌ l. The cells were incubated for 20 min with the following antibodies: biotin-conjugated anti-mouse Flk1 (clone AVAS12a1, eBioscience), allophycocyanin (APC)-conjugated anti-mouse CD140a (clone APA5, eBioscience), phycoerythrin(PE)-conjugated anti-mouse CD31 (clone 390, eBioscience), Alexa Fluor® 647-conjugated anti-mouse CD144 (clone BV13, eBioscience), PE-conjugated anti-mouse D114 (clone HMD4-1, Biolegend), PE-conjugated anti-mouse Tie2 (clone TEK4, eBioscience), PE-conjugated anti-mouse Endoglin (clone MJ7/18, Biolegend), anti-mouse ICAM2 (clone 3C4, Biolegend), APC-conjugated anti-mouse CD140b (clone APBS, eBioscience), PE-conjugated anti-mouse LYVE1 (clone ALY7, eBioscience), anti-mouse VEGFR3 (goat polyclonal, R&D systems), anti-mouse EphB4 (clone VEB4-7E4, Hycult biotech), and PE-conjugated anti-mouse Notch1 (clone HMN1-12, Biolegend). After washing in HBSS/2% FBS twice, the cells were incubated with the following secondary antibodies: PE-conjugated streptavidin (eBioscience), PE-conjugated anti-rat IgG2a (eBioscience), and FITC-conjugated anti-goat IgG (Invitrogen). Dead cells were excluded by 7-aminoactinomycin D (7-AAD, Invitrogen).
# Flk1+ MPCs derived from mouse ESCs are capable of differentiating into ECs, hematopoietic cells, mural cells (MCs), and cardiomyocytes. To avoid cell contamination from using feeder cells for differentiation of Flk1+ MPCs, we have established a feeder cell-free 2D Matrigel system (FIG. 1A). Flk1+ MPCs were differentiated from E14tg2a ESC cell line, and when the Flk1+ MPCs were purified at day 4.5 and cultured on Matrigel-coated plates in the differentiation medium, colonies of CD144+ ECs surrounded by ┌ SMA+MCs were formed (FIG. 1B). At day 6.5, population of CD144+/CD31+ ECs grown in differentiation medium was ˜4%, whereas the same EC population was increased up to ˜20% when VEGF-A (50 ng/ml) was supplemented (FIG. 1C). For following experiments, we chose to use 50 ng/ml of VEGF-A (hereafter referred to as VEGF-A) based on its maximal effect on differentiation and expansion of ECs from Flk1+ MPCs.
smiles,measurement,setting,value
C[C@@H](N)[C@H]1CC[C@H](C(=O)Nc2ccncc2)CC1 [Y27632],reduction of αSMA+MC population,[1],~83%
same,total number of CD31+/CD144+ ECs from Flk1+ MPCs,[2]; 10 μM Y27632 plus VEGF-A compared to only VEGF-A (Control),~4.2 fold
same,percentage of EC population compared to control,[2]; 48 hrs after removal of the non-adherent cells at 6 hrs,1.4 fold
same,differentiation and expansion of ECs compared to control,[2]; R1 ESC cell line,1.6 fold
same,increase of CD31+/CD144+ EC population compared to Control,[2]; Y27632 1 μM with VEGF-A 50 ng/ml,1.8 fold
same,increase of CD31+/CD144+ EC population compared to Control,[2]; Y27632 10 μM with VEGF-A 50 ng/ml,4.1 fold
same,differentiation and expansion of ECs compared to control,[2]; iPSC,5.9 fold
same,"percentage of EC population and total cell number, dose-dependent",[2]; various concentrations of Y27632 with VEGF-A,increased

# From US20150368617A1, “METHOD FOR FORMING ENDOTHELIAL CELLS” (Korea Advanced Institute of Science and Technology (KAIST), priority 2012, published 2015)
